Laboratory results as given in US9133163B2, “Dihydropyrazole GPR40 modulators” (Bristol-Myers Squibb Company, priority 2012, dated 2015).

Experiments:
hGPR40 [1] = target: T1, hGPR40 (Homo sapiens, UniProt O14842); experiment: GPR40 IP-One HTRF assay in HEK293/GPR40 inducible cell lines; format: cell-based; design: expressed in transfected cells; details: HEK293 cells with tetracycline-inducible human GPR40; read-out: hGPR40 IP1 EC50
Procedure: GPR40 IP-One HTRF Assays in HEK293/GPR40 Inducible Cell Lines
Human, mouse and rat GPR40-mediated intracellular IP-One HTRF assays were established using human embryonic kidney HEK293 cells stably transfected with a tetracycline-inducible human, mouse or rat GPR40 receptor. Cells were routinely cultured in growth medium containing DMEM (Gibco Cat. #12430-047), 10% qualified FBS (Sigma, Cat. #F2442), 200 μg/ml hygromycin (Invitrogen, Cat. #16087-010) and 1.5 μg/ml blasticidin (Invitrogen, Cat. #R210-01). About 12-15 million cells were passed into a T175 tissue culture flask (BD FALCON® 353112) with growth medium and incubated for 16-18 hours (overnight) at 370 C with 5% CO2. The next day, assay medium was exchanged with growth medium containing 1000 ng/mL of tetracycline (Fluka Analytical, Cat. #87128) to induce GPR40 expression for 18-24 hours at […] incubator with 5% CO2. After induction, the cells were washed with PBS (Gibco, Cat. #14190-036) and detached with Cell Stripper (CELLGRO®, Cat. #25-056-CL). 10-20 mL growth medium were added to the flask and cells were collected in 50 mL tubes (FALCON®, Cat. #352098) and spun at 1000 RPM for 5 minutes. Culture medium was aspirated and the cells were resuspended in 10 mL of 1× IP-One Stimulation Buffer from the Cisbio IP-One kit (Cisbio, Cat. #62IPAPEJ). The cells were diluted to 1.4×10^6 cells/mL in Stimulation Buffer.
Test compounds were 3-fold, 11-point serially diluted in DMSO in a REMP assay plate (Matrix Cat. #4307) by BIOCEL® (Agilent). The compounds were transferred into an Echo plate (LABCYTE, Cat. #LP-0200) and […] of diluted compounds were transferred to an assay plate (proxi-plate from Perkin Elmer, Cat. #6008289) by Echo acoustic nano dispenser (LABCYTE, model ECHO550). 14 μL of the diluted cells were then added to the assay plate by Thermo (SN 836 330) CombiDrop and incubated at room temperature for 45 minutes. Then 3 μL of IP1 coupled to dye D2 from the Cisbio IP-One kit were added to the assay plate followed by 3 μL of Lumi4TM-Tb cryptate K from the kit. The plate was further incubated at room for 1 hour before reading on the Envision (Perkin Elmer Model2101) with an HTRF protocol. Activation data for the test compound over a range of concentrations was plotted as percentage activation of the test compound (100%=maximum response). After correcting for background [(sample read-mean of low control)/(mean of high control−mean of low control)](low control is DMSO without any compound), EC50 values were determined. The EC50 is defined as the concentration of test compound which produces 50% of the maximal response and was quantified using the 4 parameter logistic equation to fit the data.

C57BL6 mice = experiment: Acute oral glucose tolerance test; format: in vivo; details: % change in glucose AUC (0-180 min) from vehicle, 0.3 mg/kg oral; for Acute oral glucose tolerance: co-administered with glucose 2 g/kg
Procedure: Acute Oral Glucose Tolerance Test
Ten week old C57BL6 mice were housed individually and fasted for 5 hours on the day of study. Tail vein sampling was performed from nicked tails to obtain plasma samples. Baseline plasma samples were taken at t=0. Mice were orally treated with vehicle or compounds co-administered with glucose (2 g/kg). Sampling thereafter from tails of treated mice at 20, 40, 60, 120 and 180 min provided data used for generating glucose excursion curves from which 0-180 min blood glucose excursion profiles were generated. The area under the curve (AUC) allowed for assessment of glucose lowering by compound treatments. Blood samples were collected in EDTA-treated tubes (MICROVETTE® CB300, Sarstedt, Numbrecht, Germany), stored on ice and spun @ 6000 rpm for 10 minutes. Plasma glucose was analyzed on the same day using an AU680 Clinical Chemistry Analyzer (Beckman Coulter, Brea, Calif.). Statistical analysis is a one way ANOVA with Dunnett's post hoc test or two-way student's t test where appropriate. P values less than 0.05 were considered statistically significant.

hGPR40 [2] = target: T1, hGPR40; experiment: FDSS-based intracellular calcium assay; format: cell-based; design: 3xFLAG; expressed in transfected cells; details: intracellular Ca2+ response, cells expressing GPR40
Procedure: FDSS-Based Intracellular Calcium Assay
Compounds are dissolved in DMSO and diluted to desired concentrations with assay buffer and added to the cells as 3× solution (20 μL per well). Run fluorescence/luminescence reader FDSS (Hamamatsu) to read intracellular Ca^2+ response.

T1 sequence (O14842 whole entry): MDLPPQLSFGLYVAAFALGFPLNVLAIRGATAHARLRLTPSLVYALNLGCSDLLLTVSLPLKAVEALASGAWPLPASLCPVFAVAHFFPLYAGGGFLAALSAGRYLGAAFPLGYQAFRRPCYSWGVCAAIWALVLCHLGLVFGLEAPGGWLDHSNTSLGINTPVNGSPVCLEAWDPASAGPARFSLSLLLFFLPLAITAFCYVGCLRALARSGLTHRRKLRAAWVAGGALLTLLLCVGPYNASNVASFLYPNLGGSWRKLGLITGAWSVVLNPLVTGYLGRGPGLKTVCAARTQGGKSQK

`CCOc1ccc(F)c(N2CCC(Oc3ccc(N4N=C(C(F)(F)F)[C@@H](C)[C@@H]4CC(=O)O)cc3)C(CC)C2)c1` (single isomer, unassigned) [Example 25 (Isomer 2)] was tested, and the EC50 (hGPR40 [1]) was 21 nM, the “Acute oral glucose tolerance” value (C57BL6 mice) was −38% and the EC50 (hGPR40 [2]) was 113 nM.

With `CCOc1ccc(F)c(N2CCC(Oc3ccc(N4N=C(C(F)(F)F)[C@@H](C)[C@@H]4CC(=O)O)cc3)C(CC(C)C)C2)c1` (single isomer, unassigned) [Example 27 (Isomer 1)] the EC50 (hGPR40 [1]) was 90 nM and the EC50 (hGPR40 [2]) was 412 nM.

Molecule `CCOc1ccc(F)c(N2CCC(Oc3ccc(N4N=C(C(F)(F)F)[C@@H](C)[C@@H]4CC(=O)O)cc3)C(CC(C)C)C2)c1` (single isomer, unassigned) [Example 27 (Isomer 2)] has an EC50 (hGPR40 [1]) of 84 nM and an EC50 (hGPR40 [2]) of 34 nM.

`COc1ccc(F)c(N2CCC(Oc3ccc(N4N=C(C(F)(F)F)[C@@H](C)[C@@H]4CC(=O)O)cc3)C(F)C2)c1` (single isomer, unassigned) [Example 57 (Isomer 4)] showed an EC50 (hGPR40 [1]) of 11 nM and an EC50 (hGPR40 [2]) of 66 nM.

With `COc1cc(N2CC[C@@H](Oc3ccc(N4N=C(C(F)(F)F)[C@@H](C)[C@@H]4CC(=O)O)cc3)[C@H](C)C2)c(Cl)cn1` (single isomer, unassigned) [Example 81, Isomer 2 (neutral form)] the EC50 (hGPR40 [1]) was 9 nM, the “Acute oral glucose tolerance” value (C57BL6 mice) was −54% and the EC50 (hGPR40 [2]) was 71 nM.

Molecule `CC[C@@H]1C(C(F)(F)F)=NN(c2ccc(OC3CCN(c4cc(OC)ccc4F)CC3)cc2)[C@H]1CC(=O)O` (single isomer, unassigned) [Example 88, Isomer 1] has an EC50 (hGPR40 [1]) of 18 nM and an EC50 (hGPR40 [2]) of 78 nM.

`COc1ccc(F)c(N2CCC(Oc3ccc(N4N=C(C(F)(F)F)[C@@H](C)[C@@H]4CC(=O)O)cc3)CC2)c1` [Example 1, 2-((4S,5S)-1-(4-((1-(2-Fluoro-5-methoxyphenyl)piperidin-4-yl)oxy)phenyl)-4-methyl-3-(trifluoromethyl)-4,5-dihydro-1H-pyrazol-5-yl)acetic acid] was tested, and the EC50 (hGPR40 [1]) was 17 nM, the “Acute oral glucose tolerance” value (C57BL6 mice) was −47% and the EC50 (hGPR40 [2]) was 114 nM.

Work on `CC(C)Oc1ccc(F)c(N2CCC(Oc3ccc(N4N=C(C(F)(F)F)[C@@H](C)[C@@H]4CC(=O)O)cc3)C(C)C2)c1` (stereo partly drawn) [Example 12, 2-((4S,5S)-1-(4-((1-(2-Fluoro-5-isopropoxyphenyl)-3-methylpiperidin-4-yl)oxy)phenyl)-4-methyl-3-(trifluoromethyl)-4,5-dihydro-1H-pyrazol-5-yl)acetic acid] yielded an EC50 (hGPR40 [1]) of 253 nM and an EC50 (hGPR40 [2]) of 311 nM.

For `COc1cc(F)c(F)c(N2CCC(Oc3ccc(N4N=C(C(F)(F)F)[C@@H](C)[C@@H]4CC(=O)O)cc3)CC2)c1` [Example 16, 2-((4S,5S)-1-(4-((1-(2,3-Difluoro-5-methoxyphenyl)piperidin-4-yl)oxy)phenyl)-4-methyl-3-(trifluoromethyl)-4,5-dihydro-1H-pyrazol-5-yl)acetic acid], the EC50 (hGPR40 [1]) was 133 nM and the EC50 (hGPR40 [2]) was 273 nM.

`CCOc1cc(F)c(F)c(N2CCC(Oc3ccc(N4N=C(C(F)(F)F)[C@@H](C)[C@@H]4CC(=O)O)cc3)CC2)c1` [Example 17, 2-((4S,5S)-1-(4-((1-(5-Ethoxy-2,3-difluorophenyl)piperidin-4-yl)oxy)phenyl)-4-methyl-3-(trifluoromethyl)-4,5-dihydro-1H-pyrazol-5-yl)acetic acid] was tested, and the EC50 (hGPR40 [1]) was 294 nM and the EC50 (hGPR40 [2]) was 286 nM.

With `CCOc1ccc(F)c(N2CC[C@@H](Oc3ccc(N4N=C(C(F)(F)F)[C@@H](C)[C@@H]4CC(=O)O)cc3)[C@H](C)C2)c1` [Example 29, 2-((4S,5S)-1-(4-(((3R,4R)-1-(5-Ethoxy-2-fluorophenyl)-3-methylpiperidin-4-yl)oxy)phenyl)-4-methyl-3-(trifluoromethyl)-4,5-dihydro-1H-pyrazol-5-yl)acetic acid] the EC50 (hGPR40 [1]) was 11 nM, the “Acute oral glucose tolerance (average of two experiments)” value (C57BL6 mice; average of two experiments) was −52% and the EC50 (hGPR40 [2]) was 154 nM.

Work on `Cc1ccc(F)c(N2CCC(Oc3ccc(N4N=C(C(F)(F)F)[C@@H](C)[C@@H]4CC(=O)O)cc3)CC2)c1` [Example 36, 2-((4S,5S)-1-(4-((1-(2-Fluoro-5-methylphenyl)piperidin-4-yl)oxy)phenyl)-4-methyl-3-(trifluoromethyl)-4,5-dihydro-1H-pyrazol-5-yl)acetic acid] yielded an EC50 (hGPR40 [1]) of 86 nM and an EC50 (hGPR40 [2]) of 440 nM.

`COc1cccc(N2CCC(Oc3ccc(N4N=C(C(F)(F)F)[C@@H](C)[C@@H]4CC(=O)O)cc3)CC2)c1` [Example 40, 2-((4S,5S)-1-(4-((1-(3-Methoxyphenyl)piperidin-4-yl)oxy)phenyl)-4-methyl-3-(trifluoromethyl)-4,5-dihydro-1H-pyrazol-5-yl)acetic acid] was tested, and the EC50 (hGPR40 [1]) was 107 nM and the EC50 (hGPR40 [2]) was 620 nM.

With `CCc1ccc(F)c(N2CCC(Oc3ccc(N4N=C(C(F)(F)F)[C@@H](C)[C@@H]4CC(=O)O)cc3)CC2)c1` [Example 65, 2-((4S,5S)-1-(4-((1-(5-Ethyl-2-fluorophenyl)piperidin-4-yl)oxy)phenyl)-4-methyl-3-(trifluoromethyl)-4,5-dihydro-1H-pyrazol-5-yl)acetic acid] the EC50 (hGPR40 [1]) was 297 nM and the EC50 (hGPR40 [2]) was 583 nM.

`CCc1cccc(N2CCC(Oc3ccc(N4N=C(C(F)(F)F)[C@@H](C)[C@@H]4CC(=O)O)cc3)CC2)c1` [Example 71, 2-((4S,5S)-1-(4-((1-(3-Ethylphenyl)piperidin-4-yl)oxy)phenyl)-4-methyl-3-(trifluoromethyl)-4,5-dihydro-1H-pyrazol-5-yl)acetic acid] showed an EC50 (hGPR40 [1]) of 224 nM and an EC50 (hGPR40 [2]) of 1180 nM.

`COc1cc(N2CCC(Oc3ccc(N4N=C(C(F)(F)F)[C@@H](C)[C@@H]4CC(=O)O)cc3)CC2)c(F)cn1` [Example 79, 2-((4S,5S)-1-(4-((1-(5-Fluoro-2-methoxypyridin-4-yl)piperidin-4-yl)oxy)phenyl)-4-methyl-3-(trifluoromethyl)-4,5-dihydro-1H-pyrazol-5-yl)acetic acid] showed an EC50 (hGPR40 [1]) of 94 nM and an EC50 (hGPR40 [2]) of 163 nM.

For `[2H]C([2H])([2H])Oc1cc(N2CC[C@@H](Oc3ccc(N4N=C(C(F)(F)F)[C@@H](C)[C@@H]4CC(=O)O)cc3)[C@H](C)C2)c(Cl)cn1` [Example 87, 2-((4S,5S)-1-(4-(((3R,4R)-1-(5-Chloro-2-d3-methoxypyridin-4-yl)-3-methylpiperidin-4-yl)oxy)phenyl)-4-methyl-3-(trifluoromethyl)-4,5-dihydro-1H-pyrazol-5-yl)acetic acid], the EC50 (hGPR40 [1]) was 6 nM and the EC50 (hGPR40 [2]) was 74 nM.

`CCOc1ccc(F)c(N2CC[C@@H](Oc3ccc(N4N=C(c5ccc(C#N)cc5)[C@@H](CC)[C@@H]4CC(=O)O)cc3)[C@H](C)C2)c1` [Example 99, 2-((4S,5S)-3-(4-Cyanophenyl)-1-(4-(((3R,4R)-1-(5-ethoxy-2-fluorophenyl)-3-methylpiperidin-4-yl)oxy)phenyl)-4-ethyl-4,5-dihydro-1H-pyrazol-5-yl)acetic acid] gave an EC50 (hGPR40 [1]) of 20 nM and an EC50 (hGPR40 [2]) of 25 nM.
